Test results reported in US7141661B2, “Non-steroidal anti-inflammatory drug activated gene with anti-tumorigenic properties” (The United States of America as represented by the …, priority 2000, dated 2006).

Assays:
Assay type in all cases: cell-based, human
NAG-1 [1] = experiment: Northern blot analysis of NAG-1 mRNA expression in HCT-116 cells
Experimental: Upon reaching 60–80% confluence in 10 cm plates, the cells were treated at indicated concentrations and times with either different NSAIDs or PPARγ ligands in the absence of serum. Total RNAs were isolated using TRIzol reagent (Life Technologies) according to the manufacturer's protocol. For Northern blot analysis, […] of total RNA was denatured at 55° C. for 15 min and separated in a 1.2% agarose gel containing 2.2 M formaldehyde, and transferred to Hybond-N membrane ([…]). After fixing the membrane by UV, blots were prehybridized in hybridization solution (Rapid-hyb buffer, […]) for 1 hr at 65° C. followed by hybridization with cDNA labeled with [α-^32P]dCTP by random primer extension (DECAprimeII kit, Ambion). The probes used were either full-length NAG-1 fragment or PTGFB clone (generously provided by Dr. Bento-Soar of the University of Iowa). After 4 hr incubation at 65° C., the blots were washed once with 2×SSC/0.1% SDS at RT and twice with 0.1×SSC/0.1% SDS at 65° C. Messenger RNA abundance Was estimated by intensities of the hybridization bands of autoradiographs using Scion Image (Scion). Equivalent loading of RNA samples was confirmed by hybridizing the same blot with a ^32P-labeled b-actin probe which recognizes RNA of approximately 2 kb.
To determine whether other NSAIDs increased apoptosis and NAG-1 expression, tests were conducted to determine whether variants of NSAIDs induced NAG-1 gene expression and NSAID-induced apoptosis. Aspirin, ibuprofen, indomethacin, and sulindac sulfide were selected since they are known COX inhibitors. […] HCT-116 cells were treated with different NSAIDs (vehicle, 0.2% DMSO; aspirin, 10 mM; ibuprofen, 1 mM; sodium salicylate, 5 mM; sulindac sulfide, 50 μM; sulindac, 40 μM; acetaminophen, 100 μM) for 24 hr in the absence of serum. Northern analysis was performed using NAG-1 and β-actin as probes. Total RNAs were isolated from NSAID-treated HCT-116 cells after 24 hr treatment and Northern blot was performed using NAG-1 cDNA as a probe (data not shown). […] Each of the doses were as follows: aspirin (1, 5, 10 mM); ibuprofen (100, 500, 1000 μM); salicylate (1, 2.5, 5 mM); sulindac sulfide (1, 10, 50 μM); sulindac (10, 20, 40 μM); acetaminophen (10, 50, 100 μM). After 48 hr treatment with NSAIDs in the presence of serum, cells were harvested and assayed as described in FIG. 1C. Apoptosis detected by PI staining was measured by FACS, as known in the art (FIG. 2A; HCT-116 cells were treated with different NSAIDs (vehicle, 0.2% DMSO; Aspirin, 10 mM; Ibuprofen, 1 mM; Sodium Salicylate, 5 mM; Sulindac Sulfide, 50 μM; Sulindac, 40 μM; Acetaminophen, 100 μM) for 24 hr in the absence of serum. Northern analysis was performed using NAG-1 and β-actin as probes. The open bars represent the relative expression of NAG-1 mRNA over the control (vehicle). The hatched bars represent the relative apoptosis ratio over vehicle treatment by PI staining methods. N=3±S.D.).
In the Table below, HCT-116 cells were treated with different NSAIDs (vehicle, 0.2% DMSO) for 24 hr in the absence of serum. Northern analysis was performed using NAG-1 and β-actin as probes. The data represent relative expression of NAG-1 mRNA over the control (1.0). Each NSAID was tested at 3 different concentrations and maximally effective concentration used for apoptosis determination. Apoptosis ratio by PI staining was measured by FACS. After 48 hr treatment with NSAIDs in the presence of serum, cells were harvested and assayed. The data represent relative apoptosis ratio over vehicle treatment by PI staining methods. TACS™ Annexin V-FITC kit was also used to confirm apoptosis.

NAG-1 [2] = experiment: Northern blot NAG-1 induction in MCF-7 breast carcinoma cells; settings: MCF-7 cells, 10 mM, 24 hr
Experimental: (§1) NSAID-induced apoptosis is not restricted to colorectal cells, as NSAIDs can induce apoptosis in breast, lung, leukemia, and prostate cell lines. To test for the induction of NAG-1 by NSAIDs in different cell lines, A549 lung epithelial cells, MCF-7 mammary cells, PC-3 prostate cancer cells, and U937 leukemia cell lines were treated with several concentrations of INDO and aspirin. Then, as described above, Northern blot analysis was performed. […] Quiescent cells were grown for 24 hr in the presence of indicated NSAIDs. Total RNAs were isolated and subjected to Northern analysis using NAG-1 and β-actin as probes. The blots contained 10 μg of total RNA from INDO- or Aspirin (Asp)-treated cells with indicated doses. “V” indicates total RNAs from vehicle (0.2% DMSO) treated cells. The results shown are representative of those obtained in two experiments.

NAG-1 [3] = experiment: Northern blot NAG-1 induction in U937 leukemia cells; settings: 24 hr
Experimental: as §1

HCT-116 cells = experiment: Apoptosis and cell cycle by PI staining / FACS in HCT-116 cells
Experimental: To determine whether NAG-1 gene expression is associated with NSAID-induced apoptosis or altered cell cycle kinetics, flow cytometric analysis of the distribution of cells at various stages of the cell cycle was performed. Apoptosis and cell cycle kinetics of INDO-treated HCT-116 cells were measured at different time points. HCT-116 cells were treated with INDO, stained with PI, and analyzed by flow cytometry. Seven thousand five hundred cells were examined by flow cytometry by gating on an area versus width dot plot to exclude cell debris and cell aggregates. Apoptosis is represented by the fold increase in sub-G1 population over 0 hr treatment.
The DNA content for NSAIDs, PPARγ ligand, and vehicle treated HCT-116 cells was determined by FACS. Cells were plated at a density of 4×10^5 cells/well in 2 ml of medium in 6 well plates, incubated for 16 h, and then treated with NSAIDs or TGZ in the presence of serum. After treatment, the cells were harvested, washed with PBS, fixed by the slow addition of cold 70% ethanol to a total of 1 ml, and stored overnight at 4° C. The fixed cells were pelleted, washed once with PBS, and stained in 1 ml of 20 μg/ml of propidium iodide (PI), 1 mg/ml RNase in PBS for 20 min. Seven thousand five hundred cells were examined by flow cytometry using Becton Dickinson FACSort equipped with CellQuest software, by gating on an area versus width dot plot to exclude cell debris and cell aggregates. Each cell cycle distribution was analyzed by the McCycle program using one cell cycle parameter. Apoptosis was measured based on the level of sub-diploid DNA contained in cells following treatment with NSAIDs or TGZ using CellQuest software.
Northern analysis was performed using NAG-1 and β-actin as probes. The data represent relative expression of NAG-1 mRNA over the control (1.0). Each NSAID was tested at 3 different concentrations and maximally effective concentration used for apoptosis determination. Apoptosis ratio by PI staining was measured by FACS. […] The data represent relative apoptosis ratio over vehicle treatment by PI staining methods. TACS™ Annexin V-FITC kit was also used to confirm apoptosis.

NAG-1 [4] = experiment: Northern blot NAG-1 induction in A549 lung carcinoma cells; settings: 10 mM, 24 hr
Experimental: as §1

NAG-1 [5] = experiment: Northern blot NAG-1 induction in PC-3 prostate cells; settings: PC-3 cells, 10 mM, 24 hr
Experimental: as §1

NAG-1 promoter = NAG-1 promoter (pNAG2021) luciferase reporter assay in transiently transfected HCT-116 cells; settings: pNAG2021 in HCT-116, 24 hr; TGZ 10 μM, sulindac 40 μM, acetaminophen 100 μM, other NSAIDs; versus vehicle
Experimental: The pGLB3 promoterless vector was used as a negative control, and the pRL-TK vector was used as internal control.
After growth for 16 hr, plasmid mixtures containing 1 μg of NAG-1 promoter linked to luciferase and 0.1 μg of pRL-TK (Promega) were transfected by lipofectamine (Life Technologies) according to the manufacturer's protocol. After 24 hr, the media were changed to serum-free media and NSAIDs or TGZ were added. Cells were harvested in 1× luciferase lysis buffer after 24 hr of growth, and luciferase activity was determined and normalized to the pRL-TK luciferase activity using the Dual Luciferase Assay Kit (Promega).
The data presented here represent the mean±S.D. from 3 different experiments.

NAG-1 [6] = experiment: Western blot analysis of secreted NAG-1 protein from HCT-116 cells; settings: HCT-116, 5 μM TGZ
Experimental: The level of secreted NAG-1 was evaluated using Western blot analysis with anti-human-NAG-1 antibody (generously provided by Dr. Paralkar of Pfizer). HCT-116 cells were grown to 60–80% confluency in 10 cm plates followed by 48 hr treatment in the absence of serum with either NSAIDs or TGZ. The media were harvested and concentrated approximately 15-fold using Centriprep 10 concentrators (Amicon). Proteins (30 μg) were separated by 15% SDS-PAGE and transferred for 1 hr onto nitrocellulose membrane (Schleicher & Schuell). The blots were blocked for 1 hr with 5% skim milk in TBS/Tween 0.05%, and probed with anti-NAG-1 antibody (1 μg/ml in TBS-0.2%-Tween20) at […] overnight. After washing, the blots were treated with horseradish peroxidase-conjugated secondary antibody for 1 hr and washed several times. The signal was detected by enhanced chemiluminescence system (AMERSHAM) and autoradiography.
HCT-116 cells were treated with 100 μM INDO in the absence of serum for various times. In FIG. 1B, left panel. 10 μg of total RNA was loaded in each lane. Northern blotting was performed using the NAG-1 probe and re-probed with β-actin probe. The hybridization signals were quantitated using Scion Image software (Scion). Levels of the 1.3 kb NAG-1 transcript were normalized to the levels of β-actin transcripts and represented relative to 0 hr treatment. […] The signal was detected by ECL reagent (AMERSHAM).

Compound: CC(=O)Oc1ccccc1C(=O)O [Aspirin]
- NAG-1 Induction (mRNA) Fold (NAG-1 [1]; HCT-116, 24 hr in absence of serum, relative NAG-1 mRNA over vehicle control (1.0), tested over the concentration range listed): 3.5 Fold
- NAG-1 induction (NAG-1 [2]): high NAG-1 induction
- NAG-1 expression (NAG-1 [3]; 5 mM): significantly increased
- NAG-1 induction (NAG-1 [3]; 10 mM): high NAG-1 induction
- Apoptosis (PI Staining), relative apoptosis ratio over vehicle (HCT-116 cells; HCT-116, 48 hr in presence of serum, maximally effective concentration, FACS): 3.5 ± 0.451
- NAG-1 induction (NAG-1 [4]): high NAG-1 induction
- NAG-1 induction (NAG-1 [5]): high NAG-1 induction

Compound: Cc1c(C)c2c(c(C)c1O)CCC(C)(COc1ccc(CC3SC(=O)NC3=O)cc1)O2 (stereo not shown) [TGZ, Troglitazone]
- Induction of NAG-1 gene expression (NAG-1 [1]; HCT-116, 5 μM): 3 fold
- Earliest time at which increase in NAG-1 mRNA was observed (NAG-1 [1]; HCT-116, 5 μM TGZ): 3 h
- Induction of luciferase reporter activity (2021 bp NAG-1 promoter) (NAG-1 promoter): 3 fold
- Earliest time at which apoptosis was observed (HCT-116 cells; HCT-116, presence of serum, TGZ 5 μM): 12 h
- Time point at which G1 arrest was seen (HCT-116 cells; HCT-116, TGZ 5 μM): 12 h
- Time at which increase in NAG-1 protein was observed (NAG-1 [6]): 6 h
